Measured values reported in US20240000812A1, “PHARMACOLOGICAL AGENTS FOR TREATING CONDITIONS OF THE EYE” (PLEX PHARMACEUTICALS, INC., priority 2020, published 2024).
Where a name gives a salt, the structure may show the parent alone.

How the values were obtained:
COMT = details: known COMT inhibitors, cited from earlier work
bovine lens extracts = experiment: UVC/H2O2-induced aggregation of bovine lens extracts; type: biochemical; details: 7 minutes exposure
Text: FIG. 2 represents data relating to UVC/H2O2-induced aggregation of bovine lens extracts, as described in Example 4.

[1] = test system: chicks with form deprivation myopia; experiment: Form deprivation myopia chick model, scleral proteoglycan synthesis (35SO4 incorporation into glycosaminoglycans); type: in vivo; details: high (2.25 mM) and low (0.75 mM) dose, 20 ul intravitreal daily for seven days; measured four hours after the final dose
Method: Three compounds (quinpirole, CAP4719, and L-DOPA) were tested in chicks for their effects on scleral proteoglycan synthesis, as a measure of scleral growth, axial elongation and myopia. CAP4719 has the following structure: […]
Form deprivation myopia is induced in the right eyes of 4-5 days old chicks by the application of translucent occluders. […] At the end of the treatment period, chicks are sacrificed, their sclera labelled in organ culture with 35SO4, and scleral proteoglycan synthesis measured by CPC-precipitation of newly synthesized glycosaminoglycans. Radioactivity is measured using scintillation counting, and the amount of radioactivity compared (as CPM) between right and left eyes of all groups of animals by paired t-tests and between different groups using ANOVA. […]
The right eyes were goggled (myopic) and injected with either the high dose, low dose, or vehicle of the CAP4719 compound. Proteoglycan synthesis was measured as the amount of 35SO4 (cpm) incorporated into glycosaminoglycans four hours after the final dose. […]

[2] = test system: experimental myopia in chickens; details: intravitreal administration; cited from earlier work
[3] = test system: experimental myopia in guinea pigs; details: systemic administration; cited from earlier work
[4] = test system: experimental myopia in rabbits; details: intravitreal administration of exogenous dopamine; cited from earlier work

## O=C(CCN1CCN(c2cccc(C(F)(F)F)c2)CC1)c1cc(O)c(O)c([N+](=O)[O-])c1 [BIA 3-335, 1-(3,4-Dihydroxy-5-nitrophenyl)-3-{4-[3-(trifluoromethyl)phenyl]-1-piperazinyl}-1-propanone dihydrochloride]
COMT
  Ki: 6 nM

## O=C(NCCCNC(=O)c1ccc(O)c(O)c1)c1ccc(O)c(O)c1 [Bifunctional inhibitor, N,N′-(propane-1,3-diyl)bis(3,4-dihydroxybenzamide)]
COMT; read-out: IC50 (concentration of the inhibitor that affords a 50% inhibition in the activity of the enzyme, COMT)
  IC50: 300 nM

## Cc1ccc(C(=O)c2cc(O)c(O)c([N+](=O)[O-])c2)cc1 [CAP1160]
Bovine lens extracts
  Prevention of UVC/H2O2-induced aggregation of bovine lens extracts: prevents UVC/H2O2-induced aggregation of bovine lens extracts

## Cc1ccc(C(=O)c2cc(OC(=O)CCCP(=O)([O-])[O-])c(O)c([N+](=O)[O-])c2)cc1.[Na+].[Na+] [CAP4719]
[1]
  Block of the increase in proteoglycan synthesis in the goggled (myopic) right eye: did not completely block the increase in proteoglycan synthesis
  Percentage increase in proteoglycan synthesis over the left (control) eye, compared with the vehicle: appears to be lower

## N[C@@H](Cc1ccc(O)c(O)c1)C(=O)O [L-Dopa]
[2]
  Development of experimental myopia: inhibit the development of experimental myopia
[3]
  Development of experimental myopia: inhibit the development of experimental myopia

## Cc1c(Cl)c(C)[n+]([O-])c(Cl)c1-c1noc(-c2cc(O)c(O)c([N+](=O)[O-])c2)n1 [Opicapone]
COMT
  Ki: 1 nM

## NCCc1ccc(O)c(O)c1 [dopamine]
[4]
  Development of experimental myopia: inhibit the development of experimental myopia
